# Laboratory results as given in article PMC11500415, “Chemical inhibition of stomatal differentiation by perturbation of the master-regulatory bHLH heterodimer via an ACT-Like domain” (Nature Communications, 2024).
# Values joined by “and” are separate entries in the source; they are usually repeats but may differ in a detail not shown here. Identical values can stand only once. Like-named read-outs stand apart in the source and are kept apart here.
# Columns and labels:
# MUTE_ACTL [1] = molecular target: T1, MUTE_ACTL (Arabidopsis thaliana, UniProt Q9M8K6); assay: BLI direct binding; set-up: species or system A. thaliana; details: for Kd: read-out: KD
# T1 construct: MUTE-ACTL (114-202); made in house; host or cells: E. coli BL21
# Description: (§1) A. thaliana SCRM (1-494), ΔNSPCH (98-364), MUTE (1-202), ΔNFAMA (190-414), MUTEΔC (1-114), MUTER133A_R134A, MUTEE162A_E163A, MUTER133A_R134A_E162A_E163A, SCRM-ACTL (405-494), MUTE-ACTL (114-202), SPCH-ACTL (285-364), FAMA-ACTL (306-414), MUTE_ACTLR133A_R134A, MUTE_ACTLE162A_E163A, MUTE_ACTLR133A_R134A_E162A_E163A were cloned into pGEX-4T-1 vector with an N-terminal GST tag and a thrombin cleavage sequence. For protein expression, the constructs were transformed into E. coli strain BL21. For each transformant, a single colony was selected and incubated in 10 ml LB liquid media. The overnight-incubated E. coli suspensions were transferred to 1 L LB medium and incubated at 37 °C for around 2 h until the OD600 reached 0.4–0.6. The isopropyl β-D-1-thiogalactopyranoside ([…] of final concentration) was added to the cultures and the strains were incubated at 22 °C for a further 18 h. GST-fused proteins were purified using glutathione agarose resin. The soluble portion of the cell lysate was loaded onto a GST-Sepharose column. Nonspecifically bound proteins were removed by washing the column with 20 mM Tris pH 8.0, 200 mM NaCl. The bound GST-fused protein was eluted with 10 mm glutathione and 20 mM Tris pH 8.0, 200 mM NaCl. The GST-fused proteins were exchanged with phosphate-buffered saline buffer, and then the solution was treated with 50 μg of thrombin for 10–12 h at 16 ^οC. The GST portion of the protein was cleaved during thrombin digestion, and then the whole solution was reloaded onto the glutathione S-transferase column to obtain pure protein. The purified proteins were further purified by gel filtration on a Superdex-200 (GE) column using fast protein liquid chromatography and phosphate buffer (pH 7.2) as the eluent. The purity of the protein was checked by SDS-PAGE. For detailed lists of oligo DNA and plasmid information, see Supplementary Tables 5, 6, respectively.
# The binding affinities of SCRM to MUTE / MUTER133A_R134A / MUTEE162A_E163A / MUTER133A_R134A_E162A_E163A in presence and absence of Stomidazolone (3) and its analogues (AYSJ1059 (5) and AYSJ1061 (6)), and Stomidazolone / AYSJ1059 / AYSJ1061 interactions with GST-tagged SCRM, MUTE, SPCH, FAMA, MUTE ΔACTL, MUTE_ACTL, SCRM_ACTL, SPCH_ACTL and FAMA_ACTL, MUTER133A_134A, MUTEE162A_E163A, MUTER133A_R134A_E162A_E163A were measured using the Octet Red96 system (ForteBio, Pall Life Sciences) following the manufacturer’s protocols. The optical probes coated with anti-GST were first loaded with 500 nM GST tagged proteins before kinetic binding analyses. The experiment was performed in 96-well plates maintained at 30 °C. Each well was loaded with 200 μL reaction volume for the experiment. The binding buffer used in these experiments contained 1× PBS supplemented with 2% DMSO, 0.02% Tween20. […] There was no binding of the analytes to the unloaded probes as shown by the control wells. Binding kinetics to all seven concentrations of the analytes were measured simultaneously using default parameters on the instrument. The data were analyzed using the Octet data analysis software. The association and dissociation curves were fit with the 1:1 homogeneous ligand model. The kobs (observed rate constant) values were used to calculate Kd, with steady-state analysis of the direct binding. See Supplementary Table 3 for details.
# MUTE_ACTL [2] = molecular target: T1, MUTE_ACTL; assay: ITC direct binding; set-up: species or system A. thaliana
# Description: as §1
# Binding of the small molecule Stomidazolone (3) to SCRM, MUTE, SPCH, FAMA, MUTEΔC, MUTE_ACTL, SCRM_ACTL, SPCH_ACTL and FAMA_ACTL, MUTER133A_R134A, MUTEE162A_E163A, MUTER133A_R134A_E162A_E163A, as well as SCRM binding to MUTE in the presence and absence of Stomidazolone (3) / AYSJ1059 (5) /AYSJ1061 (6) was characterized at 30 °C using a Malvern PEAQ-ITC microcalorimeter. All the protein samples were dialyzed overnight using PBS buffer containing 2% DMSO and 1 mM DTT. Stomidazolone was dissolved in PBS buffer containing 2% DMSO and 1 mM DTT. Titrations were performed by injecting 1 × 0.5-μL and 12 × 3-μL or 1 × 0.75-μL and 18 × 2-μL or 1 × 0.2-μL and 25 × 1.3-μL aliquots of 1 mM Stomidazolone / AYSJ1059 / AYSJ1061 to 5-30 μM of protein in PBS buffer pH 7.4, containing 2% DMSO and 1 mM DTT. All titrations were carried out at least twice. The raw data were corrected using buffer and protein controls and analyzed using the software supplied by the manufacturer. See Supplementary Table 3 for details.
# [3] = MUTE_ACTL on Anti-GST sensor, Stomid 12.5 µM, rep-1, rep-2
# [4] = MUTE_ACTL on Anti-GST sensor, Stomid 25 µM, rep-1, rep-2
# [5] = MUTE_ACTL on Anti-GST sensor, Stomid 50 µM, rep-1, rep-2
# [6] = MUTE_ACTL on Anti-GST sensor, Stomid 100 µM, rep-1, rep-2
# [7] = MUTE_ACTL on Anti-GST sensor, Stomid 200 µM, rep-1, rep-2
# T1 sequence (Q9M8K6 114-202): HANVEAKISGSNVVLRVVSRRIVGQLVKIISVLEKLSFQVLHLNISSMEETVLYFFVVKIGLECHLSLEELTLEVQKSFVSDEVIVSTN
smiles,measurement,setting,value
O=C1C(c2ccccc2)=NC(NS(=O)(=O)c2ccccc2)(c2ccccc2)N1S(=O)(=O)c1ccccc1 (stereo not shown) [Stomidazolone],Req/Rmax(%),MUTE_ACTL [1]; [3],87.1% and 49%
same,Response,MUTE_ACTL [1]; [3],0.391 and 0.425
same,kon,MUTE_ACTL [1]; [3],4070 M⁻¹ s⁻¹
same,Kd,MUTE_ACTL [1]; [3],11.9 µM
same,RMax,MUTE_ACTL [1]; [4],0.49 and 0.53
same,Req/Rmax(%),MUTE_ACTL [1]; [4],83.8% and 61.4%
same,Response,MUTE_ACTL [1]; [4],0.486 and 0.524
same,kobs,MUTE_ACTL [1]; [4],0.00294 s⁻¹ and 0.00162 s⁻¹
same,kon,MUTE_ACTL [1]; [4],4080 M⁻¹ s⁻¹
same,Kd,MUTE_ACTL [1]; [4],12 µM and 11.8 µM
same,RMax,MUTE_ACTL [1]; [5],0.545 and 0.565
same,Req/Rmax(%),MUTE_ACTL [1]; [5],71.3%
same,Response,MUTE_ACTL [1]; [5],0.535 and 0.563
same,Kd,MUTE_ACTL [1]; [5],11.9 µM and 11.8 µM
same,RMax,MUTE_ACTL [1]; [6],0.621 and 0.64
same,Req/Rmax(%),MUTE_ACTL [1]; [6],98.7%
same,Response,MUTE_ACTL [1]; [6],0.611 and 0.632
same,Kd,MUTE_ACTL [1]; [6],11.7 µM
same,RMax,MUTE_ACTL [1]; [7],0.63 and 0.655
same,Req/Rmax(%),MUTE_ACTL [1]; [7],100%
same,Response,MUTE_ACTL [1]; [7],0.625 and 0.645
same,kobs,MUTE_ACTL [1]; [7],0.0329 s⁻¹ and 0.0251 s⁻¹
same,Kd,MUTE_ACTL [1]; [7],12 µM
same,koff,"MUTE_ACTL [1]; read-out: kdis(1/s), BLI, sensor at Stomid 3.12 µM",0.0481 s⁻¹
same,koff,"MUTE_ACTL [1]; read-out: kdis(1/s), BLI, sensor at Stomid 6.25 µM",0.0483 s⁻¹
same,koff,"MUTE_ACTL [1]; read-out: kdis(1/s), BLI, sensor at Stomid 12.5 µM",0.0485 s⁻¹
same,koff,"MUTE_ACTL [1]; read-out: kdis(1/s), BLI, sensor at Stomid 25 µM",0.0483 s⁻¹
same,koff,"MUTE_ACTL [1]; read-out: kdis(1/s), BLI, sensor at Stomid 50 µM",0.0485 s⁻¹
same,koff,"MUTE_ACTL [1]; read-out: kdis(1/s), BLI, sensor at Stomid 100 µM",0.0491 s⁻¹
same,koff,"MUTE_ACTL [1]; read-out: kdis(1/s), BLI, sensor at Stomid 200 µM",0.0486 s⁻¹
same,koff,"MUTE_ACTL [1]; read-out: kdis(1/s), MUTE_ACTL on Anti-GST sensor, Stomid 6.25 µM, rep-1, rep-2",0.0483 s⁻¹
same,koff,"MUTE_ACTL [1]; read-out: kdis(1/s), MUTE_ACTL on Anti-GST sensor, Stomid 12.5 µM, rep-1, rep-2",0.0485 s⁻¹
same,koff,"MUTE_ACTL [1]; read-out: kdis(1/s), MUTE_ACTL on Anti-GST sensor, Stomid 25 µM, rep-1, rep-2",0.0483 s⁻¹
same,koff,"MUTE_ACTL [1]; read-out: kdis(1/s), MUTE_ACTL on Anti-GST sensor, Stomid 50 µM, rep-1, rep-2",0.0485 s⁻¹
same,kon,"MUTE_ACTL [1]; read-out: kon(1/Ms), BLI, sensor at Stomid 3.12 µM",4110 M⁻¹ s⁻¹
same,kon,"MUTE_ACTL [1]; read-out: kon(1/Ms), BLI, sensor at Stomid 6.25 µM",4050 M⁻¹ s⁻¹
same,kon,"MUTE_ACTL [1]; read-out: kon(1/Ms), BLI, sensor at Stomid 12.5 µM",4070 M⁻¹ s⁻¹
same,kon,"MUTE_ACTL [1]; read-out: kon(1/Ms), BLI, sensor at Stomid 25 µM",4080 M⁻¹ s⁻¹
same,kon,"MUTE_ACTL [1]; read-out: kon(1/Ms), BLI, sensor at Stomid 50 µM",4070 M⁻¹ s⁻¹
same,kon,"MUTE_ACTL [1]; read-out: kon(1/Ms), BLI, sensor at Stomid 100 µM",4060 M⁻¹ s⁻¹
same,kon,"MUTE_ACTL [1]; read-out: kon(1/Ms), BLI, sensor at Stomid 200 µM",4040 M⁻¹ s⁻¹
same,kon,"MUTE_ACTL [1]; read-out: kon(1/Ms), MUTE_ACTL on Anti-GST sensor, Stomid 6.25 µM, rep-1, rep-2",4050 M⁻¹ s⁻¹
same,kon,"MUTE_ACTL [1]; read-out: kon(1/Ms), MUTE_ACTL on Anti-GST sensor, Stomid 12.5 µM, rep-1, rep-2",4050 M⁻¹ s⁻¹
same,kon,"MUTE_ACTL [1]; read-out: kon(1/Ms), MUTE_ACTL on Anti-GST sensor, Stomid 25 µM, rep-1, rep-2",4070 M⁻¹ s⁻¹
same,kon,"MUTE_ACTL [1]; read-out: kon(1/Ms), MUTE_ACTL on Anti-GST sensor, Stomid 50 µM, rep-1, rep-2",4070 M⁻¹ s⁻¹
same,kon,"MUTE_ACTL [1]; read-out: kon(1/Ms), MUTE_ACTL on Anti-GST sensor, Stomid 100 µM, rep-1, rep-2",4080 M⁻¹ s⁻¹
same,kon,"MUTE_ACTL [1]; read-out: kon(1/Ms), MUTE_ACTL on Anti-GST sensor, Stomid 200 µM, rep-1, rep-2",4070 M⁻¹ s⁻¹
same,driving force of binding to the ACTL domain (in words),MUTE_ACTL [2]; ITC data,primarily driven by enthalpic interactions
same,-T△S,"MUTE_ACTL [2]; ITC, MUTE_ACTL",14.4 ± 0.3
same,△G,"MUTE_ACTL [2]; ITC, MUTE_ACTL",-8.1 ± 0.2
same,△H,"MUTE_ACTL [2]; ITC, MUTE_ACTL",-22.5 ± 0.5
same,Kd,"MUTE_ACTL [2]; ITC, MUTE_ACTL, ND = no binding",9.8 ± 1.3 µM
